Among the data in US20060106048A1, “Furoisoquinoline derivative and use thereof” (priority 2002, published 2006) are IC50 values, retold here.

The assay deals with T1, recombinant human brain-derived phosphodiesterase 4D3 (Homo sapiens, UniProt Q08499).
T1 construct: GST; made in house; host or cells: Escherichia coli BL21/pPDE4D3 (FERM BP-7075)
In words: Assay of phosphodiesterase IV-inhibiting action (SPA, [3H]cAMP). Type of assay: biochemical. The conditions noted are these: recombinant human brain-derived phosphodiesterase 4D3, [3H]cAMP, 30 minutes at 30° C.; activity without compound = 100%; read-out: Phosphodiesterase 4D inhibiting action (IC50). From the text: Assay of Phosphodiesterase IV-Inhibiting Action
(1) Expression of Recombinant Human Brain-Derived Phosphodiesterase 4D3 in Escherichia coli and Purification Thereof.
Using the Escherichia coli BL21/pPDE4D3 (FERM BP-7075) producing recombinant human brain-derived phosphodiesterase 4D3, a recombinant human brain-derived phosphodiesterase 4D3 was obtained. The expression and purification of E. coli were in accordance with the protocol attached to GST Gene Fusion System (Pharmacia).
(2) Assay of Phosphodiesterase IV-Inhibiting Action
To a 96-well plate (OPTI plate, Packard), 10 μl of a buffer solution [0.5 M Tris-HCl (pH 7.5), 83 mM MgCl2, 17 mM EGTA], 10 μl of the recombinant human brain-derived phosphodiesterase 4D3 (0.0034 mg/ml) obtained in Section (1) described above, 65 μl of Ultrapure water, 5 μl of an inhibitor sample and 10 μl of [^3H] cAMP were added and reacted for 30 minutes at 30° C. After completing the reaction, 50 μl of SPA beads solution [18 mg/ml Yttrium silicate beads, 18 mM ZnSO4] was added thereto, and the mixture was allowed to stand at room temperature for about 20 minutes. The radioactivity was counted using a scintillation counter (Topcount, Packard). Inhibiting activity of the compound against recombinant human brain-derived phosphodiesterase 4D3 was calculated, based on that enzymatic activity under absence of the compound was 100%.

SMILES strings stand for the structures. Structures can show the parent of a compound that is named as a salt.

T1 sequence (Q08499 1-673 isoform Q08499-2): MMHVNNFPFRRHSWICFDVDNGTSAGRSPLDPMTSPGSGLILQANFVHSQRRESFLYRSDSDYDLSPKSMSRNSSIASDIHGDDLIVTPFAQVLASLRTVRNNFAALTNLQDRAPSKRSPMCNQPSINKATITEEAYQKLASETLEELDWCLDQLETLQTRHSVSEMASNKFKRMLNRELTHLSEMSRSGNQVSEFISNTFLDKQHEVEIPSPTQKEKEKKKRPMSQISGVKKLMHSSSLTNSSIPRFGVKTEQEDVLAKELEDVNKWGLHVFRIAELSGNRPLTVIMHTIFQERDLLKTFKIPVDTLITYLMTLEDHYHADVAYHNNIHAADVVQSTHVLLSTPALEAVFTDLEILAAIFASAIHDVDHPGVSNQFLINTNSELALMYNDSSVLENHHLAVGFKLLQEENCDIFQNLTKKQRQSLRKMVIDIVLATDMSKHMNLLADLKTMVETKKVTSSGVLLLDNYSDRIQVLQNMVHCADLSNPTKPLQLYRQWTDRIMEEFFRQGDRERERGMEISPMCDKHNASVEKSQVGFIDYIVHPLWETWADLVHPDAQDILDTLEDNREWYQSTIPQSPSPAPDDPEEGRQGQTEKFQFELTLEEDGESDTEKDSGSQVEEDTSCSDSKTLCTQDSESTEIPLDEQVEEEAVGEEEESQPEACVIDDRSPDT

Take `CCOc1cc2c(c3c1OC(C)(C)C3)C(c1ccc(C(=O)O)c(NCc3ccccc3)c1)=NC(C)(C)C2` [Example 6, 4-(6-Ethoxy-3,4,8,9-tetrahydro-3,3,8,8-tetramethylfuro[2,3-h]isoquinolin-1-yl)-2-[(phenylmethyl)amino]benzoic acid]: the IC50 was 0.566 nM.

In the case of `CCOc1cc2c(c3c1OC(C)(C)C3)C(c1ccc(C(=O)OC)c(NC(C)=O)c1)=NC(C)(C)C2` [Example 17, Methyl 2-(acetylamino)-4-(6-ethoxy-3,4,8,9-tetrahydro-3,3,8,8-tetramethylfuro[2,3-h]isoquinolin-1-yl)benzoate], the IC50 stood at 4.01 nM.

In the case of `CCOc1cc2c(c3c1OC(C)(C)C3)C(c1ccc(C(=O)OC)c(NC(=O)c3ccccn3)c1)=NC(C)(C)C2` [Example 21, Methyl 4-(6-ethoxy-3,4,8,9-tetrahydro-3,3,8,8-tetramethylfuro[2,3-]isoquinolin-1-yl)-2-[(2-pyridinylcarbonyl)amino]benzoate], the IC50 was 1.89 nM.

For the compound `CCOc1cc2c(c3c1OC(C)(C)C3)C(c1ccc(C(N)=O)c(NC(=O)c3ccccn3)c1)=NC(C)(C)C2` [Example 23, N-[2-(Aminocarbonyl)-5-(6-ethoxy-3,4,8,9-tetrahydro-3,3,8,8-tetramethylfuro[2,3-h]isoquinolin-1-yl)phenyl]-2-pyridinecarboxamide], the IC50 is 0.756 nM.

In the case of `CCOc1cc2c(c3c1OC(C)(C)C3)C(c1ccc(C(=O)O)c(NC(=O)c3ccc4ccccc4n3)c1)=NC(C)(C)C2` [Example 30, 4-(6-Ethoxy-3,4,8,9-tetrahydro-3,3,8,8-tetramethylfuro[2,3-h]isoquinolin-1-yl)-2-[(2-quinolinylcarbonyl)amino]benzoic acid], the half-inhibitory concentration (IC50) is 0.761 nM.

As to `CCNc1cc(C2=NC(C)(C)Cc3cc(OCC)c4c(c32)CC(C)(C)O4)ccc1C(=O)O` [Example 50, 4-(6-Ethoxy-3,4,8,9-tetrahydro-3,3,8,8-tetramethylfuro[2,3-h]isoquinolin-1-yl)-2-(ethylamino)benzoic acid], the IC50 was 8.4 nM.

In the case of `CCOc1cc2c(c3c1OC(C)(C)C3)C(c1ccc(C(=O)NC)c(NC(=O)c3ccccc3)c1)=NC(C)(C)C2` [Example 57, 2-(Benzoylamino)-4-(6-ethoxy-3,4,8,9-tetrahydro-3,3,8,8-tetramethylfuro[2,3-h]isoquinolin-1-yl)-N-methylbenzamide], the half-inhibitory concentration (IC50) was determined as 1.63 nM.

Turning to `CCOc1cc2c(c3c1OC(C)(C)C3)C(c1ccc(C#N)c(NCc3ccccc3)c1)=NC(C)(C)C2` [Example 74, 4-(6-Ethoxy-3,4,8,9-tetrahydro-3,3,8,8-tetramethylfuro[2,3-h]isoquinolin-1-yl)-2-[(phenylmethyl)amino]benzonitrile], the half-maximal inhibitory concentration (IC50) is 1.71 nM.

On to `CCOc1cc2c(c3c1OC(C)(C)C3)C(c1ccc(/C=C/C(=O)O)c(OC)c1)=NC(C)(C)C2` [Example 85, (E)-3-[4-(6-Ethoxy-3,4,8,9-tetrahydro-3,3,8,8-tetramethylfuro[2,3-h]isoquinolin-1-yl)-2-methoxyphenyl]-2-propenoic acid], for which the IC50 stood at 5.5 nM.

With `CCOc1cc2c(c3c1OC(C)(C)C3)C(c1ccc(COCC(=O)OC)cc1)=NC(C)(C)C2` [Example 94, Methyl [[4-(6-ethoxy-3,4,8,9-tetrahydro-3,3,8,8-tetramethylfuro[2,3-h]isoquinolin-1-yl)phenyl]methoxy]acetate hydrochloride], the IC50 came out at 3.27 nM.

Regarding `CCOc1cc2c(c3c1OC(C)(C)C3)C(c1ccc(COCC(=O)O)cc1)=NC(C)(C)C2` [Example 95, [[4-(6-Ethoxy-3,4,8,9-tetrahydro-3,3,8,8-tetramethylfuro[2,3-h]isoquinolin-1-yl)phenyl]methoxy]acetic acid hydrochloride], the concentration for half-maximal inhibition (IC50) was found to be 10.9 nM.

Consider `CCOc1cc2c(c3c1OC(C)(C)C3)C(c1ccc(C(C)(C)C(=O)O)cc1)=NC(C)(C)C2` [Example 118, 4-(6-Ethoxy-3,4,8,9-tetrahydro-3,3,8,8-tetramethylfuro[2,3-h]isoquinolin-1-yl)-α,α-dimethylbenzeneacetic acid hydrochloride hydrate], for which the IC50 is 11.5 nM.

In the case of `CCOc1cc2c(c3c1OC(C)(C)C3)C(c1ccc(C(C)(C)C(N)=O)cc1)=NC(C)(C)C2` [Example 120, 4-(6-Ethoxy-3,4,8,9-tetrahydro-3,3,8,8-tetramethylfuro[2,3-h]isoquinolin-1-yl)-α,α-dimethylbenzeneacetamide], the 50% inhibitory concentration (IC50) was 3.5 nM.

Consider `CCOc1cc2c(c3c1OC(C)(C)C3)C(c1ccc(CC(=O)O)c(NC(=O)c3ccccn3)c1)=NC(C)(C)C2` [Example 124, 4-(6-Ethoxy-3,4,8,9-tetrahydro-3,3,8,8-tetramethylfuro[2,3-h]isoquinolin-1-yl)-2-[(2-pyridinylcarbonyl)amino]benzeneacetic acid], for which the IC50 was found to be 0.637 nM.

One may read the IC50 as the concentration that gives 50% inhibition.
